Values joined by “and” are separate entries in the source; they are usually repeats but may differ in a detail not shown here. Equal values may be shown once.
Tests used:
pSP73KB plasmid DNA = assay: DNA interstrand cross-linking, denaturing agarose gel; type: biochemical; conditions: in the dark
Method: Interstrand cross-links: In this experiment, interstrand cross-linking efficiency of photoactivated 1 or 2, and of 5 or 6 in the dark was investigated using pSP73KB plasmid DNA. The DNA samples were treated with complexes 5 or 6 in the dark or with 1 or 2 under irradiation conditions and then were analysed by agarose gel electrophoresis under denaturing conditions. The interstrand cross-linked DNA appears in the autoradiogram as the top bands (Figure 11), which migrate more slowly than the single-strand DNA (the bottom bands). The frequencies of interstrand cross-links formed by photoactivated 1 or 2, and 5 and 6 (in the dark) were 23(±5), 19(±3), 9(±3) and 16(±2) %, respectively.
Figure 11 Agarose gel electrophoresis for quantification of DNA interstrand cross-linking. The interstrand cross-links (ICLs) by: A) 1 or 2 under irradiation conditions (420 nm light), and B) 5 or 6 in the dark were formed in linear pSP73KB plasmid DNA. A) Lane 1: control, non-modified DNA; lane 2: control, non-modified DNA, but irradiated; lanes 3–7: DNA modified by photoactivated 1 at rb=3.35×10^−5, 6.70×10^−5, 3.35×10^−4, 6.70×10^−4, 3.35×10^−3, respectively; lanes 8–12: DNA modified by photoactivated 2 at rb=3.70×10^−5, 7.40×10^−5, 3.70×10^−4, 7.40×10^−4, 3.70×10^−3, respectively. […]

calf thymus DNA = assay: Binding to calf thymus DNA (differential pulse polarography); conditions: in the dark; ri=0.05, 10 mM NaClO4, 310 K
Method: Binding to calf thymus DNA: Samples of double-helical calf thymus DNA (32 μg mL^−1) were treated with the Pt complexes at the ri=0.05 (ri is defined as the molar ratio of free platinum complex to nucleotide phosphates at the onset of incubation with DNA) in NaClO4 (10 mM) and incubated at 310 K in the dark for complexes 5 or 6 (Figure 7 C and D). For complexes 1 or 2, samples were irradiated continuously with 420 nm light for 30 min and then further incubated in the dark for up to 24 h so that the activated forms of the complexes could bind DNA (Figure 7 A and B). The amount of Pt bound to DNA increased with time for all four complexes. […]
the UKS method with the unrestricted PBE1PBE functional was employed. […] Thirty-two singlet and eight triplet excited states with the corresponding oscillator strengths were determined with a Time-dependent Density Functional Theory (TDDFT)[15] calculation. […]
assayed by differential pulse polarography for free, unbound platinum.[16] The amount of platinum bound to DNA was calculated by subtracting the amount of free (unbound) platinum from the total amount of platinum present in the reaction. […]
This fragment contained T7 RNA polymerase promoter (in the upper strand close to its 3'-end). […] The fragments produced in RNA synthesis on the template modified by the platinum complexes were analysed by a 6% polyacrylamide/8M urea sequencing gel. […]

Row | SMILES | Interstrand cross-link (pSP73KB plasmid DNA) | Pt bound after 24 h (calf thymus DNA)
1 | C[NH2+][Pt@SP3-2]([Cl])([Cl])[n+]1ccccc1 [Complex 5, trans-[PtCl2(MA)(Py)]] | 9(±3) % and 9±3% | 80(±5) % and 80±5%
2 | C[NH2+][Pt@SP3-2]([Cl])([Cl])[n+]1ccsc1 [Complex 6, trans-[PtCl2(MA)(Tz)]] | 16(±2) % and 16±2% | 63(±5) % and 63±5%

From paper PMC4280898, “Diazido Mixed-Amine Platinum(IV) Anticancer Complexes Activatable by Visible-Light Form Novel DNA Adducts” (Chemistry (Weinheim an Der Bergstrasse, Germany), 2013)
